Drawing on PMC12064818, “A general assay platform to study protein pharmacology using ligand-dependent structural dynamics” (Nature Communications, 2025), this text covers IC50 for 55 compounds.

Each structure is given as a SMILES string.

This test addresses T1, FLuc-C-HiBiT (Photinus pyralis, UniProt P08659).
T1 construct: firefly luciferase with C-terminal HiBiT tag, E. coli expressed
The experiment in a line: biochemical. As to conditions: enzyme activity, 10 uM ATP; read-out: IC50 or SDR50 (mM) / FLuc E.

T1 sequence (P08659 whole entry, looked up): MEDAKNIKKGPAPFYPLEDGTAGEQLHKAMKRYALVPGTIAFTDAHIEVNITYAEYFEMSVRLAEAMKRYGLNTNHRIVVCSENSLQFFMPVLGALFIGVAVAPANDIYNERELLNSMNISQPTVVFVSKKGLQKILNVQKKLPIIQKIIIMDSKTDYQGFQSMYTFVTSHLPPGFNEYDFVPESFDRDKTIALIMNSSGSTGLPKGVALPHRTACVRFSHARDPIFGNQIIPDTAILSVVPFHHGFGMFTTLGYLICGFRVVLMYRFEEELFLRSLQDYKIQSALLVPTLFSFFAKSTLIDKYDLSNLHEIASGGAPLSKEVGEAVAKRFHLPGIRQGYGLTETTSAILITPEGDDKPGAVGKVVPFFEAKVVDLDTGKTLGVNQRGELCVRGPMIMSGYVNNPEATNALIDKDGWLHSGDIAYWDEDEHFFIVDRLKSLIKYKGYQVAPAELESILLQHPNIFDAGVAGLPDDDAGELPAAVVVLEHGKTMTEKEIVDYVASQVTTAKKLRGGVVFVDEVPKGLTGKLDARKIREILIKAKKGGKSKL

Consider `CNC(=O)c1cccc(-c2cnc(Nc3cccnc3OC)c3c2CCO3)c1` [NCGC00412753-01], for which the IC50 came out at 0.00508 mM. As to `Cc1ccc(Nc2ncnc3c2nc2n3CCCC2)c(Br)c1` [NCGC00124653-01], the IC50 stood at 0.00495 mM.

`Cc1ccc(-c2cc3c(=O)n(CCNC(=O)Cc4ccsc4)ccn3n2)c(C)c1` [NCGC00456972-01]: the IC50 turned out to be 0.00624 mM. Under `O=C(Nc1ccccc1)c1nc2c(o1)CCN(Cc1ccc(O)cc1)CC2` [NCGC00413411-01] stands 0.00508 mM; under `CCOc1ccc(-c2cc(CCCC(=O)NCCc3ccc(SC)cc3)no2)cc1` [NCGC00110854-01], 0.00313 mM. In the case of `Clc1cccc(-c2nc(-c3ccccn3)no2)c1` [NCGC00035901-01], the IC50 was determined as 0.000989 mM.

Take `O=C(Nc1c(C(=O)Nc2ccc(F)cc2)oc2ccccc12)c1cc2ccccc2o1` [NCGC00111604-01]: the IC50 was found to be 0.00785 mM. To `COc1ccc(C(=O)Nc2ccc(-c3nc4ccccc4s3)c(Cl)c2)cc1Cl` [NCGC00102002-01] belongs more than 0.03 mM; to `C=CCN(C)C(=O)[C@@H](C)C1CC[C@@]2(C)Cc3sc(NC(=O)CN(C)C)nc3[C@@H](C)[C@@H]2[C@H]1O` (stereo partly shown) [NCGC00421253-01], more than 0.03 mM; to `Fc1ccccc1Nc1nc(-c2ccccc2)no1` [NCGC00422293-01], 0.0007 mM.

As to `CCSc1ccc(C(=O)Nc2ccc(-c3nc4ccc(C)cc4s3)cc2)cc1` [NCGC00134697-01], the IC50 was more than 0.03 mM.

On to `c1ccc(CNc2nc(-c3ccccc3)no2)cc1` [NCGC00422290-01], for which the IC50 was 0.0176 mM. Under `Cc1ccc(-n2nc(C)c([C@@H]3C=C[C@@H](NC(=O)COCC(=O)O)C3)c2C)cc1Cl` [NCGC00401616-01] stands more than 0.03 mM; under `Cc1ccc(-c2cc3c(=O)n(CCNC(=O)c4cccc(C#N)c4)ccn3n2)c(C)c1` [NCGC00456970-01], 0.00313 mM.

Turning to `CCc1cccc(NCc2ccccc2-c2nnc(-c3ccccc3Cl)o2)c1` [NCGC00107400-01], the IC50 was more than 0.03 mM. For `O=C(O)c1ccc(-c2noc(-c3cccc(C(F)(F)F)c3)n2)cc1` [NCGC00168106-02], the IC50 was 0.00881 mM. `CN1CCOc2nc(-c3ccc(Oc4ccccc4)cc3)ncc2C1=O` [NCGC00413560-01]: the IC50 is 0.0161 mM.

Take `COc1ccc(-c2noc(Nc3ccc4c(c3)OCCO4)n2)cc1` [NCGC00422336-01]: the IC50 turned out to be 0.00157 mM. With `Nc1nc2c(nc(O)n2[C@H]2C[C@H](O)[C@@H](CO)O2)c(=O)[nH]1` [NCGC00475978-01], the IC50 was more than 0.03 mM. To `Cc1cnc(CCNC(=O)Nc2ccc3c(c2)OCCO3)n1Cc1ccc(F)cc1` [NCGC00469838-01] belongs 0.0124 mM; to `O=C1NCCCCCCN(C(=O)Nc2ccc3c(c2)OCCO3)[C@H]2CCC[C@@H]12` [NCGC00465105-01], 0.00351 mM; to `Cc1csc(NC(=O)c2nc3c(o2)CCN(Cc2ccccc2F)CC3)n1` [NCGC00413264-01], 0.0128 mM. `COc1ccc(C(=O)NC2CCCN(c3cc(-c4ccc(Cl)cc4)n[nH]3)C2)cc1OC` (stereo not shown) [NCGC00437414-01]: the IC50 was found to be 0.00624 mM. To `CCOC(=O)c1cccc(NC(=O)CCc2c(C)nc3cc(-c4ccc(Cl)cc4)nn3c2C)c1` [NCGC00110030-01] belongs 0.00881 mM; to `CN1CCN(C[C@@H]2CN(C(=O)CCCc3ccccc3)C[C@@H]2CO)CC1` [NCGC00435815-01], more than 0.03 mM; to `COc1cccc(-c2nc3ccc(-c4ccc5c(c4)OCO5)cc3o2)c1OC` [NCGC00474498-01], 0.00248 mM. To `COCC1CCN(c2ccc(-c3nc(-c4ccccc4C)no3)cn2)C1` (stereo not shown) [NCGC00427117-01] belongs 0.0176 mM; to `Cc1ccc(NC(=O)Nc2ccc(C)n(CC(=O)N3CCC(C)CC3)c2=O)cc1` [NCGC00430800-01], 0.00394 mM. To `Cc1ccccc1-c1noc(-c2ccc(NC(C)c3cnn(C)c3)nc2)n1` (stereo not shown) [NCGC00428942-01] belongs 0.000989 mM; to `COc1ccc(CN(C(=O)c2cc3ccccc3oc2=O)C2CC[S+](=O)([O-])C2)cc1OC` (stereo not shown) [NCGC00100996-01], more than 0.03 mM.

Turning to `CC1(NC(=O)C2CC2)CN(Cc2nc(-c3ccccc3OCc3ccccc3)cs2)C1` [NCGC00410379-01], the IC50 was 0.0161 mM. To `COc1ccc(-c2noc(-c3ccc(N4CCN(C)CC4)c([N+](=O)[O-])c3)n2)cc1` [NCGC00119282-01] belongs 0.0157 mM. Take `Cc1ccc(-n2ncc3c(N4CCCCCC4)ncnc32)cc1Cl` [NCGC00139187-01]: the IC50 stood at 0.0007 mM.

For `CCCn1c(C)cnc1CC1CCN(C(=O)C2(c3ccc(OC)cc3)CC2)C1` (stereo not shown) [NCGC00464172-01], the IC50 was more than 0.03 mM.

On to `C=Cc1ccc(-c2nc3ccc(OC)cc3s2)cc1` [NCGC00167606-01], for which the IC50 came out at 0.000442 mM. As to `Cc1cnc(NC(=O)c2ccc3c(c2)OCC(=O)N(C)C3)s1` [NCGC00418511-01], the IC50 came to 0.0143 mM. To `CC(=O)Nc1cccc(-c2ccc(COc3ccc4c(cnn4CCC(=O)O)c3)cc2)c1` [NCGC00418146-01] belongs 0.00101 mM; to `COc1cccc(-c2nc3cc(NC(=O)c4ccc(C)c([N+](=O)[O-])c4)ccc3s2)c1` [NCGC00348177-01], more than 0.03 mM. To `COc1ccc(-c2ncc3c(n2)OCCN(C)C3=O)cc1F` [NCGC00413447-01] belongs 0.018 mM; to `CCCOc1ccccc1C(=O)Nc1ccc(-c2nc3ccc(C)cc3s2)cc1` [NCGC00103054-01], 0.00624 mM; to `COc1cccc(-c2nc3cc(NC(=O)c4ccc(F)c(C#N)c4)ccc3s2)c1` [NCGC00350766-01], more than 0.03 mM. For `Cc1ccc(OCC(=O)Nc2cccc(-c3nc4ccccc4s3)c2)cc1` [NCGC00119153-02], the IC50 came to 0.00989 mM. To `COc1ccc(C(=O)Nc2cc(-c3nc4ccccc4s3)ccc2OC)cc1` [NCGC00103028-01] belongs 0.00989 mM; to `O=C(Nc1cccc(-c2nc3ccccc3s2)c1)N1CCC(O)C1` (stereo not shown) [NCGC00638360-01], 0.00881 mM; to `O=C(NCC(F)(F)F)C1CCCN1c1nc2ncccc2o1` (stereo not shown) [NCGC00480238-01], more than 0.03 mM. To `Clc1ccc(Nc2ncc(-c3cccnc3)c3c2OCC3)cc1` [NCGC00412736-01] belongs 0.018 mM; to `Oc1ccc(Cl)cc1CN1CCOc2c(O)cc(-c3nc4ccccc4s3)cc2C1` [NCGC00240488-01], more than 0.03 mM; to `O=C(N1c2ccccc2CC1c1noc(C2CCOCC2)n1)C1(c2ccccc2)CC1` (stereo not shown) [NCGC00471505-01], 0.0124 mM. On to `CN1c2cc(C(=O)Nc3cccc(Cl)c3)ccc2C(=O)N2CCCCCC21` (stereo not shown) [NCGC00452209-01], for which the IC50 was determined as 0.0176 mM. To `O=C(CSc1nnc2ccccn12)Nc1cccc(-c2nc3ccccc3s2)c1` [NCGC00688053-01] belongs more than 0.03 mM. To `CCC(C)NC(=O)Cn1c(C)ccc(NC(=O)Nc2ccc(C)cc2)c1=O` (stereo not shown) [NCGC00430780-01] belongs 0.00124 mM.

`COc1cccc2cc(C(=O)Nc3ccc(C)cc3)c(=O)oc12` [NCGC00099361-01]: the IC50 was 0.000495 mM. Under `Cc1ccc(-c2nc(C)c(CCNC(=O)c3cccs3)s2)cc1` [NCGC00135815-01] stands 0.0176 mM.

With `COc1ccc(NC(=O)Nc2nnc(C)s2)cc1` [NCGC00106652-01], the IC50 is 0.0111 mM. Take `CN1CCN(c2ccc(-c3cccc(NC(=O)C4CCCCC4)c3)nn2)CC1` [NCGC00427550-01]: the IC50 worked out at 0.00881 mM.
